For one test, the system named is KB. Kind of test: Concentration that inhibits cell proliferation (KB cell line) after 72 h of incubation. Format: functional, cell-based. As to conditions: Homo sapiens; call rule not given here.
Test [1] is described as follows: Concentration that inhibits the rate of cold-induced microtubule disassembly. Format: functional.
The nature of test [2]: Concentration that inhibits the rate of cold-induced microtubule disassembly; Inactive. The test is classed as functional.

For `CC(=O)O[C@@]12COC1C[C@H](O)C1C(=O)[C@H](O)C3=C(C)[C@@H](OC(=O)[C@H](O)[C@@H](NC(=O)N[C@H](C(=O)N4CCC[C@H]4C(=O)NCC(=O)NCC(=O)O)C(C)C)c4ccccc4)C[C@@](O)([C@@H](OC(=O)c4ccccc4)C12)C3(C)C` (some centres undefined), the IC50 (commonly the point on the concentration scale where inhibition reaches its midpoint) in the test on KB was over 10000 nM; in test [1], 500 nM.
For `CC(=O)O[C@@]12COC1C[C@H](O)C1C(=O)[C@H](O)C3=C(C)[C@@H](OC(=O)[C@H](O)[C@@H](NC(=O)N[C@H](C(=O)N4CCC[C@H]4C(=O)O)C(C)C)c4ccccc4)C[C@@](O)([C@@H](OC(=O)c4ccccc4)C12)C3(C)C` (some centres undefined), the IC50 is 4500 nM in the test on KB and 1700 nM in test [1].
The matching figures for `CC(=O)O[C@@]12COC1C[C@H](O)C1C(=O)[C@H](O)C3=C(C)[C@@H](OC(=O)[C@H](O)[C@@H](NC(=O)N[C@H](C(=O)N4CCC[C@H]4C(=O)NCC(=O)O)C(C)C)c4ccccc4)C[C@@](O)([C@@H](OC(=O)c4ccccc4)C12)C3(C)C` (some centres undefined): over 10000 nM and 600 nM.
With `COC(=O)[C@H](CCSC)NC(=O)[C@H](Cc1ccccc1)NC(=O)[C@@H](NC(=O)N[C@@H](c1ccccc1)[C@@H](O)C(=O)O[C@H]1C[C@@]2(O)[C@@H](OC(=O)c3ccccc3)C3C(C(=O)[C@H](O)C(=C1C)C2(C)C)[C@@H](O)CC1OC[C@]13OC(C)=O)C(C)C` (some centres undefined), the IC50 was found to be 1100 nM in the test with KB and 2600 nM in test [1].
For `CC(=O)O[C@@]12COC1C[C@H](O)C1C(=O)[C@H](O)C3=C(C)[C@@H](OC(=O)[C@H](O)[C@@H](NC(=O)N[C@H](C(=O)O)C(C)C)c4ccccc4)C[C@@](O)([C@@H](OC(=O)c4ccccc4)C12)C3(C)C` (some centres undefined), the IC50 is 670 nM with KB and 800 nM in test [1].
With `CC(=O)O[C@@]12COC1C[C@H](O)C1C(=O)[C@H](O)C3=C(C)[C@@H](OC(=O)[C@H](O)[C@@H](NC(=O)NCC(=O)N[C@@H](COCc4ccccc4)C(=O)N[C@@H](Cc4ccc(OCc5ccccc5)cc4)C(=O)OCc4ccccc4)c4ccccc4)C[C@@](O)([C@@H](OC(=O)c4ccccc4)C12)C3(C)C` (some centres undefined), the IC50 result in test [2] is “Not Active”; in the test with KB, 90 nM.
On to `CC(=O)O[C@@]12COC1C[C@H](O)C1C(=O)[C@H](O)C3=C(C)[C@@H](OC(=O)[C@H](O)[C@@H](NC(=O)N[C@H](C(=O)OCc4ccccc4)C(C)C)c4ccccc4)C[C@@](O)([C@@H](OC(=O)c4ccccc4)C12)C3(C)C` (some centres undefined), for which the concentration for half-maximal inhibition (IC50) with KB was determined as 4 nM; in test [1], 800 nM.
`CC(=O)O[C@@]12COC1C[C@H](O)C1C(=O)[C@H](O)C3=C(C)[C@@H](OC(=O)[C@H](O)[C@@H](NC(=O)NCC(=O)N[C@@H](CO)C(=O)N[C@@H](Cc4ccc(O)cc4)C(=O)O)c4ccccc4)C[C@@](O)([C@@H](OC(=O)c4ccccc4)C12)C3(C)C` (some centres undefined): the IC50 with KB was 1050 nM; in test [1], 1000 nM.
For `CC(=O)O[C@@]12COC1C[C@H](O)C1C(=O)[C@H](O)C3=C(C)[C@@H](OC(=O)[C@H](O)[C@@H](NC(=O)N[C@H](C(=O)N4CCC[C@H]4C(=O)NCC(=O)OCc4ccccc4)C(C)C)c4ccccc4)C[C@@](O)([C@@H](OC(=O)c4ccccc4)C12)C3(C)C` (some centres undefined), in that order: 100 nM and 400 nM.
In the case of `CC(=O)O[C@@]12COC1C[C@H](O)C1C(=O)[C@H](O)C3=C(C)[C@@H](OC(=O)[C@H](O)[C@@H](NC(=O)N[C@H](C(=O)N4CCC[C@H]4C(=O)OCc4ccccc4)C(C)C)c4ccccc4)C[C@@](O)([C@@H](OC(=O)c4ccccc4)C12)C3(C)C` (some centres undefined), the IC50 in the test on KB amounted to 50 nM; in test [1], 500 nM.
For `CC(=O)O[C@@]12COC1C[C@H](O)C1C(=O)[C@H](O)C3=C(C)[C@@H](OC(=O)[C@H](O)[C@@H](NC(=O)OC(C)(C)C)c4ccccc4)C[C@@](O)([C@@H](OC(=O)c4ccccc4)C12)C3(C)C` (some centres undefined), the values for the half-maximal inhibitory concentration (IC50) (with KB; in test [1]) were 1 nM and 500 nM, respectively.
The matching figures for `CC(=O)O[C@@]12COC1C[C@H](O)C1C(=O)[C@H](O)C3=C(C)[C@@H](OC(=O)[C@H](O)[C@@H](NC(=O)N[C@H](C(=O)N4CCC[C@H]4C(=O)NCC(=O)NCC(=O)OCc4ccccc4)C(C)C)c4ccccc4)C[C@@](O)([C@@H](OC(=O)c4ccccc4)C12)C3(C)C` (some centres undefined): 4000 nM and 300 nM.

Source of the values: ChEMBL document CHEMBL1140396, “Novel C2-C3' N-peptide linked macrocyclic taxoids. Part 1: Synthesis and biological activities of docetaxel analogues with a peptide side chain at C3'” (Bioorg Med Chem Lett, 2005).
